PubChem BioAssay (NCI)
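Compound exposure: 48 hours, 5 concentrations, 96-well plates. GI50 marks 50% less growth. At the TGI there is no net growth.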

Key:
Assay in all cases: NCI-60 cell line screen, 48 h
786-0 renal = test system: 786-0 renal
A498 renal = test system: A498 renal
A549 NSCLC = test system: A549 NSCLC
ACHN renal = test system: ACHN renal
BT-549 breast = test system: BT-549 breast
CAKI-1 renal = test system: CAKI-1 renal
COLO 205 colon = test system: COLO 205 colon
DU-145 prostate = test system: DU-145 prostate
EKVX NSCLC = test system: EKVX NSCLC
HCT-116 colon = test system: HCT-116 colon
HCT-15 colon = test system: HCT-15 colon
HOP-62 NSCLC = test system: HOP-62 NSCLC
HOP-92 NSCLC = test system: HOP-92 NSCLC
HT29 colon = test system: HT29 colon
IGROV1 ovarian = test system: IGROV1 ovarian
K-562 leukemia = test system: K-562 leukemia
KM12 colon = test system: KM12 colon
LOX IMVI melanoma = test system: LOX IMVI melanoma
M14 melanoma = test system: M14 melanoma
MALME-3M melanoma = test system: MALME-3M melanoma
MDA-MB-231 breast = test system: MDA-MB-231 breast
MDA-MB-435 = test system: MDA-MB-435
MOLT-4 leukemia = test system: MOLT-4 leukemia
NCI-H226 lung = test system: NCI-H226 lung
NCI-H23 lung = test system: NCI-H23 lung
NCI-H460 lung = test system: NCI-H460 lung
NCI-H522 lung = test system: NCI-H522 lung
NCI/ADR-RES ovarian = test system: NCI/ADR-RES ovarian
OVCAR-3 ovarian = test system: OVCAR-3 ovarian
OVCAR-4 ovarian = test system: OVCAR-4 ovarian
OVCAR-5 ovarian = test system: OVCAR-5 ovarian
OVCAR-8 ovarian = test system: OVCAR-8 ovarian
RPMI-8226 leukemia = test system: RPMI-8226 leukemia
RXF 393 renal = test system: RXF 393 renal
SF-268 CNS = test system: SF-268 CNS
SF-295 CNS = test system: SF-295 CNS
SF-539 CNS = test system: SF-539 CNS
SK-MEL-28 melanoma = test system: SK-MEL-28 melanoma
SK-MEL-5 melanoma = test system: SK-MEL-5 melanoma
SK-OV-3 ovarian = test system: SK-OV-3 ovarian
SN12C renal = test system: SN12C renal
SNB-19 CNS = test system: SNB-19 CNS
SNB-75 CNS = test system: SNB-75 CNS
SW-620 colon = test system: SW-620 colon
T-47D breast = test system: T-47D breast
TK-10 renal = test system: TK-10 renal
U251 CNS = test system: U251 CNS
UACC-257 melanoma = test system: UACC-257 melanoma
UO-31 renal = test system: UO-31 renal
CCRF-CEM leukemia = test system: CCRF-CEM leukemia
HL-60(TB) leukemia = test system: HL-60(TB) leukemia
UACC-62 melanoma = test system: UACC-62 melanoma
HCC-2998 colon = test system: HCC-2998 colon
MCF7 breast = test system: MCF7 breast
PC-3 prostate = test system: PC-3 prostate
SK-MEL-2 melanoma = test system: SK-MEL-2 melanoma
SR leukemia = test system: SR leukemia

CC(=O)[C@@H]1C/C(=C\OCc2ccccc2)O[C@H]1C
TGI (786-0 renal): > 100 µM
TGI (A498 renal): > 100 µM
TGI (A549 NSCLC): > 100 µM
TGI (ACHN renal): > 100 µM
TGI (BT-549 breast): > 100 µM
TGI (CAKI-1 renal): > 100 µM
TGI (COLO 205 colon): > 100 µM
TGI (DU-145 prostate): > 100 µM
TGI (EKVX NSCLC): > 100 µM
TGI (HCT-116 colon): > 100 µM
TGI (HCT-15 colon): > 100 µM
TGI (HOP-62 NSCLC): > 100 µM
TGI (HOP-92 NSCLC): > 100 µM
TGI (HT29 colon): > 100 µM
TGI (IGROV1 ovarian): > 100 µM
TGI (K-562 leukemia): > 100 µM
TGI (KM12 colon): > 100 µM
TGI (LOX IMVI melanoma): > 100 µM
TGI (M14 melanoma): > 100 µM
TGI (MALME-3M melanoma): > 100 µM
TGI (MDA-MB-231 breast): > 100 µM
TGI (MDA-MB-435): > 100 µM
TGI (MOLT-4 leukemia): > 100 µM
TGI (NCI-H226 lung): > 100 µM
TGI (NCI-H23 lung): > 100 µM
TGI (NCI-H460 lung): > 100 µM
TGI (NCI-H522 lung): > 100 µM
TGI (NCI/ADR-RES ovarian): > 100 µM
TGI (OVCAR-3 ovarian): > 100 µM
TGI (OVCAR-4 ovarian): > 100 µM
TGI (OVCAR-5 ovarian): > 100 µM
TGI (OVCAR-8 ovarian): > 100 µM
TGI (RPMI-8226 leukemia): > 100 µM
TGI (RXF 393 renal): > 100 µM
TGI (SF-268 CNS): > 100 µM
TGI (SF-295 CNS): > 100 µM
TGI (SF-539 CNS): > 100 µM
TGI (SK-MEL-28 melanoma): > 100 µM
TGI (SK-MEL-5 melanoma): > 100 µM
TGI (SK-OV-3 ovarian): > 100 µM
TGI (SN12C renal): > 100 µM
TGI (SNB-19 CNS): > 100 µM
TGI (SNB-75 CNS): > 100 µM
TGI (SW-620 colon): > 100 µM
TGI (T-47D breast): > 100 µM
TGI (TK-10 renal): > 100 µM
TGI (U251 CNS): > 100 µM
TGI (UACC-257 melanoma): > 100 µM
TGI (UO-31 renal): > 100 µM

Cc1c2c(cc[n+]1Cc1ccccc1)c1ccc(OCc3ccccc3)cc1n2Cc1ccccc1
GI50 (ACHN renal): 1.51 µM
TGI (ACHN renal): 2.84 µM
GI50 (CAKI-1 renal): 1.67 µM
TGI (CAKI-1 renal): 3.67 µM
GI50 (CCRF-CEM leukemia): 0.336 µM
TGI (CCRF-CEM leukemia): 2.09 µM
GI50 (DU-145 prostate): 0.499 µM
TGI (DU-145 prostate): 1.74 µM
GI50 (HCT-15 colon): 2.01 µM
TGI (HCT-15 colon): 4.64 µM
GI50 (HL-60(TB) leukemia): 0.202 µM
TGI (HL-60(TB) leukemia): 0.47 µM
GI50 (NCI/ADR-RES ovarian): 5.78 µM
TGI (NCI/ADR-RES ovarian): > 69.3 µM
GI50 (OVCAR-5 ovarian): 0.984 µM
TGI (OVCAR-5 ovarian): 2.21 µM
GI50 (RPMI-8226 leukemia): 0.231 µM
TGI (RPMI-8226 leukemia): 1.95 µM
GI50 (SK-MEL-28 melanoma): 0.515 µM
TGI (SK-MEL-28 melanoma): 1.86 µM
GI50 (SK-MEL-5 melanoma): 0.182 µM
TGI (SK-MEL-5 melanoma): 0.366 µM
GI50 (SK-OV-3 ovarian): 1.11 µM
TGI (SK-OV-3 ovarian): 2.36 µM
GI50 (UACC-257 melanoma): 0.245 µM
TGI (UACC-257 melanoma): 0.789 µM
GI50 (UACC-62 melanoma): 0.286 µM
TGI (UACC-62 melanoma): 1.21 µM

CC12CCC(C(Nc3cc(C(F)(F)F)cc(C(F)(F)F)c3)C1=O)C2(C)C (configuration not stated)
TGI (786-0 renal): > 100 µM
TGI (A498 renal): > 100 µM
TGI (A549 NSCLC): > 100 µM
TGI (ACHN renal): > 100 µM
TGI (BT-549 breast): > 100 µM
TGI (CAKI-1 renal): > 100 µM
TGI (COLO 205 colon): > 100 µM
TGI (DU-145 prostate): > 100 µM
TGI (EKVX NSCLC): > 100 µM
TGI (HCC-2998 colon): > 100 µM
TGI (HCT-116 colon): > 100 µM
TGI (HCT-15 colon): > 100 µM
TGI (HOP-62 NSCLC): > 100 µM
TGI (HT29 colon): > 100 µM
TGI (IGROV1 ovarian): > 100 µM
TGI (K-562 leukemia): > 100 µM
TGI (KM12 colon): > 100 µM
TGI (LOX IMVI melanoma): > 100 µM
TGI (M14 melanoma): > 100 µM
TGI (MALME-3M melanoma): > 100 µM
TGI (MCF7 breast): > 100 µM
TGI (MDA-MB-231 breast): > 100 µM
TGI (MDA-MB-435): > 100 µM
TGI (MOLT-4 leukemia): > 100 µM
TGI (NCI-H226 lung): > 100 µM
TGI (NCI-H23 lung): > 100 µM
TGI (NCI-H460 lung): > 100 µM
TGI (NCI/ADR-RES ovarian): > 100 µM
TGI (OVCAR-3 ovarian): > 100 µM
TGI (OVCAR-4 ovarian): > 100 µM
TGI (OVCAR-5 ovarian): > 100 µM
TGI (OVCAR-8 ovarian): > 100 µM
TGI (PC-3 prostate): > 100 µM
TGI (RPMI-8226 leukemia): > 100 µM
TGI (SF-268 CNS): > 100 µM
TGI (SF-295 CNS): > 100 µM
TGI (SF-539 CNS): > 100 µM
TGI (SK-MEL-2 melanoma): > 100 µM
TGI (SK-MEL-28 melanoma): > 100 µM
TGI (SK-MEL-5 melanoma): > 100 µM
TGI (SK-OV-3 ovarian): > 100 µM
TGI (SNB-19 CNS): > 100 µM
TGI (SR leukemia): > 100 µM
TGI (SW-620 colon): > 100 µM
TGI (T-47D breast): > 100 µM
TGI (TK-10 renal): > 100 µM
TGI (U251 CNS): > 100 µM
TGI (UACC-257 melanoma): > 100 µM
TGI (UACC-62 melanoma): > 100 µM
TGI (UO-31 renal): > 100 µM
